Assays:
Format in all cases: in vivo
[1] = tested on: cats; experiment: hemodynamics and activity of intact heart in cats under anesthesia; settings: cats i.v.
Description: The effects of compounds on the hemodynamics and activity of intact heart were studied in cats under anesthesia. The experiments were carried out under conditions of open chest. The phase curve of aortic blood flow was the main index of cardiac activity. The compounds were administered i.v. in physiological solution. The t-Student' test was used to estimate the statistical significance.

[2] = tested on: Balb/c mice; experiment: open-field test, Balb/c mice (passive type of emotional-stress reaction); design: key to Total activity: sum of all locomotor activity counts (crossings + rearings) in 3 min; settings: for effect on the behavior (locomotor activity) of Balb/c mice in open-field test, in words: i.p., screening
Outline: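 Male mice, 20-22 g, dosed i.p. in water 30 min before a 3-min open-field test after 1 min in darkness; peripheral, central, rearing and total activity plus defecations recorded; Student t-test. Anxiolysis read as Balb/c activation, sedation as C57B1/6 inhibition.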

[3] = tested on: ventricular fibrillations; experiment: ventricular fibrillation, 7-min occlusion and reperfusion of coronary artery in anesthetized rats; settings: anesthetized rats i.v.; bonnecor 1,0, IX 2,0, X (printed) 1,0 mg/kg
Description: The experiments were conducted in male rats weighing 180-240 g and anesthetized with nembutal (60 mg/kg i.v.) with open chest and artificial respiration. The occlusion of the left coronary artery was performed 1-2 min after experiment beginning with following reperfusion after 7 min. During this period time according to literature data [Krzeminski T., Grzyb J., Kurcok A., Brus R.: Pol.J.Pharmacol., 1992, 44, Suppl., p.169-170] the maximum number of ventricular fibrillations (70-100%) were registered. The ECG in the 2nd standard lead was recorded in “Mingograph-81”. The number of ventricular fibrillations during occlusion and reperfusion periods, the life menacing arrhythmia (fibrillation+paroxysmal ventricular tachycardia) and total number of arrhythmias were calculated. The known antiarrhythmic drug bonnecor was used as the reference agent [Grigorieva E. K., Gorbunova V. V. in: “New antiarrhythmic drug—bonnecor (the pharmacology and clinical usage)”, M., 1993, p.64-67]. The compounds were injected i.v. at the following doses: bonnecor—1,0 mg/kg, compound IX—2,0 mg/kg, compound XX—1,0 mg/kg. The control animals were administered with the equivalent volume of physiological solution (1,0 ml/kg). 4 series of experiments were carried out in 80 rats. The results were assessed according to the method of point scale: the absence of arrhythmia—0 point, extrasystole—1 point, paroxysmal ventricular tachycardia—2 points, ventricular fibrillation—3 points, fibrillation observed during the occlusion of coronary vessel—4 points. For statistical analysis the Fisher's exact probability and Wilconson's methods were used.
[Krzeminski T., Grzyb J., Kurcok A., Brus R.: Pol.J.Pharmacol., 1992, 44, Suppl., p.169-170] have shown that 7 min occlusion with following reperfusion of coronary artery in anesthetized rats produced the ventricular fibrillation (68-100%). Defibrotide and prostacycline decreased the number of fibrillations. We have studied the antifibrillator activity of some derivatives of 2-mercaptbenzimidazole in this model with disturbances of heart rhythm. Bonnecor (1,0 mg/kg) was used as the reference drug. It is well known that this agent produces apronouncedantifibrillatoryactivity [Grigorieva E. K., Gorbunova V. V. in: “New antiarrhythmic drug-bonnecor (the pharmacology and clinical usage)”, M., 1993, p.64-67].

[4] = tested on: C57B1/6 mice; experiment: open-field test, C57B1/6 mice (active type of emotional-stress reaction); design: key to Total activity: sum of all locomotor activity counts (crossings + rearings) in 3 min; settings: for Central activity (crossings) / Peripheral activity (crossings) / Total activity / Vertical activity (rearings): M ± mx
From the text: The main point of this approach consists in comparative analysis of the behavioural effects of tested compounds in two inbred strains of mice Balb/c and C57B1/6 with different hereditary types of emotional-stress reactions (ESR). The anxiolytic effect was estimated as the activation of the locomotor activity of animals with “passive” type of ESR (Balb/c mice). The main index describing the sedative properties of tested drugs was the inhibition of the locomotor activity of mice with “active” type of ESR (C57B1/6 strain). The anxioselectivity was evaluated according to coincidence of doses range which activated or inhibited the behavior of mice of different strains. Earlier this approach has been successfully used for estimation of anxioselective activity of such known drugs as phenazepam [Seredenin S. B. et al., Bull.Exp.Biol.Med., 1979, v.88, N7, p.38; Seredenin S. B. et al., Ann.Inst.Super.Sanita, 1990, v.26, N1, p.81-88], mexidol [Seredenin S. B. et al., Khimiko-Farmatsevt.Zhurnal, 1987, N2, p.134; Vironina T. A., Seredenin S. B., Ann.Inst.Super.Sanita, 1988, v.24, N3, p.461-466] and gidazepam [Seredenin S. B. et al., in: “Gidazepam” Kiev, Naukova Dumka, 1992, p.92; Seredenin S. B., Blednov Yu. A., Phys.Chem.Biol.Med., 1993, v.1, N1, p.53-60].
Male C57B1/6 and Balb/c mice (“Stolbovaya” animal farm), weighing 20-22 g were used. The animals were housed in a separate animal room in groups of ten and maintained on 12 h light-dark cycle (light from 8.00 till 20.00) with free access to standard food and water during two weeks before experiment. Testing was performed between 9.00 and 13.00. Every used compound was administered intraperitoneally in water solutions 30 min before testing (0,1 ml solution per 10 g of weight). The “open-field” apparatus consisted of cylinder closed from one end, illuminated by four 75 W lamps fixed to the walls 100 cm above the floor. The “open-field” apparatus was 100 cm in diameter and white-painted; the floor was marked with 3 black circles and some radial lines divided the floor into 16 peripheral and 8 central segments. 30 min after injection each animal was placed in the same peripheral square on the floor for 3 min of testing after 1 min exposure in the dark chamber. The following behavior variables were recorded: 1) the number of crossings in the peripheral area (peripheral activity); 2) the number of crossings in the central segments (central activity); 3) the number of rearings (vertical activity); 4) the emotionality was measured as the number of defecations during the test. The sum of all types of locomotor activity was marked as total activity. The t-Student test was used for statistical analysis.

[5] = tested on: outbred male rats; experiment: conflict Vogel test (punished licking of water); settings: M ± mx
Description: The study of anxiolytic activity of chosen compounds was carried out in the experiments with outbred male rats weighing 180-200 g in standard conflict Vogel' procedure [Voronina T. A. et al., in: “Phenazepam”, Naukova Dumka, Kiev, 1982, p.89, 93, 146]. The main aim of the initial step of experiments was the training of rats to develop the feeling of thirst with following experience of water licking from bottle in the experimental chamber. The animals were deprived of water for 24 hours and were placed in the test chamber for 5-min adaptation period during which they had free access to the drinking bottle. After another 24 h deprivation period the rats were placed again in the test chamber and were allowed to drink water for 5 sec. Immediately afterwards drinking attempts were punished by electric shock (0,5 mA). Under this collision of drinking and protective reflexes the extremal situation was developed. In this situation the anxiety of punishment prevented the licking process. The number of shocks received throughout a 5-min experimental session was recorded.

[6] = tested on: male outbred mice; experiment: potentiation of sleep induced by sodium thiopental
Description: The possible hypnotic effects of choosen drugs was estimated according to method of potentiation of sleep induced by sodium thiopental. The male outbred mice weighing 20-25 g were injected i.p. with sodium thiopental at dose of 70 mg/kg. Two parameters were estimated: latent time of sleeping and duration of sleep. The used compounds were administered i.p. 30 min prior injection of sodium thiopental.

[7] = tested on: outbred male mice; experiment: rotarod test (myorelaxant activity); settings: cut-off 120 sec
Description: The myorelaxant activity of choosen compounds were studied in the outbred male mice weighing 22-25 g in rotarod test [Voronina T. A. et al., in: “Phenazepam”, Naukova Dumka, Kiev, 1982, p.145]. The animals were placed on the horizontal rotarod (D=2 cm) calibrated for a fixed speed of 4 rpm. According to the rotarod experimental protocol, normal motor coordination was defined by the ability of the animals to remain on the rotarod for an arbitrarily selected time of 120 sec.

[8] = 0.5 mg/kg i.p. 30 min before thiopental 70 mg/kg i.p.
[9] = 1.0 mg/kg i.p. 30 min before thiopental 70 mg/kg i.p.
[10] = 5.0 mg/kg i.p. 30 min before thiopental 70 mg/kg i.p.
[11] = 10.0 mg/kg i.p. 30 min before thiopental 70 mg/kg i.p.

## CCOc1ccc2nc(SCCN3CCCC3)[nH]c2c1 [Compound X, 2-[2-(Pyrrolidino)ethylthio]-5-ethoxybenzimidazole]
[1]; doses of 0,5 mg/kg-2,0 mg/kg
  effect on heart rate, in words: small and short bradycardia
[2]
  effect on the behavior (locomotor activity) of Balb/c mice in open-field test, in words: neither activatory nor inhibitory effects
[3]
  antifibrillatory effect, in words: trend to decrease the number of ventricular fibrillations

## Cc1cc2nc(SCCN3CCOCC3)[nH]c2cc1C [XV, 2-[2-(Morpholino)ethylthio]-5,6-dimethylbenzimidazole]
[1]; dose of 5 mg/kg
  effect on heart rate, in words: small, but statistically significant bradycardia
[2]; 0.01 mg/kg i.p., M ± mx
  Number of defecations: 0.5 ± 0.5
  Peripheral activity (crossings): 6.9 ± 1.8
  Total activity: 6.9 ± 1.8
[2]; 0.1 mg/kg i.p., M ± mx
  Number of defecations: 1.0 ± 0.7
  Peripheral activity (crossings): 11.1 ± 2.1
  Total activity: 11.2 ± 2.1
[2]; 0.5 mg/kg i.p., M ± mx
  Central activity (crossings): 0.5 ± 0.4
  Number of defecations: 1.6 ± 0.7
  Peripheral activity (crossings): 32.1 ± 4.7
  Total activity: 32.6 ± 5.0
[2]; 1.0 mg/kg i.p., M ± mx
  Central activity (crossings): 5.1 ± 4.4
  Number of defecations: 2.0 ± 0.9
  Peripheral activity (crossings): 37.7 ± 5.5
  Total activity: 42.8 ± 9.9
[2]; 5.0 mg/kg i.p., M ± mx
  Number of defecations: 3.6 ± 0.9
  Peripheral activity (crossings): 39.1 ± 8.6
  Total activity: 39.1 ± 8.6
[2]; 10.0 mg/kg i.p., M ± mx
  Central activity (crossings): 0.6 ± 0.5
  Peripheral activity (crossings): 44.9 ± 13.0
  Total activity: 45.9 ± 13.8
  Vertical activity (rearings): 0.4 ± 0.3 —
[2]; 75.0 mg/kg i.p., M ± mx
  Number of defecations: 2.7 ± 1.3
  Peripheral activity (crossings): 8.8 ± 2.9
  Total activity: 8.8 ± 2.9
[2]; 100.0 mg/kg i.p., M ± mx
  Peripheral activity (crossings): 6.5 ± 3.1
  Total activity: 6.5 ± 3.1
[2]
  effect on the behavior (locomotor activity) of Balb/c mice in open-field test, in words: able to activate the behavior of Balb/c mice
[4]; 1.0 mg/kg i.p.
  Central activity (crossings): 39.0 ± 6.9
  Peripheral activity (crossings): 87.8 ± 6.7
  Total activity: 138.2 ± 16.1
  Vertical activity (rearings): 11.4 ± 2.5
[4]; 5.0 mg/kg i.p.
  Central activity (crossings): 36.4 ± 5.7
  Peripheral activity (crossings): 87.8 ± 14.6
  Total activity: 139.1 ± 22.6
  Vertical activity (rearings): 14.9 ± 2.3
[4]; 50.0 mg/kg i.p.
  Central activity (crossings): 35.0 ± 8.1
  Peripheral activity (crossings): 54.1 ± 10.7
  Total activity: 95.4 ± 20.4
  Vertical activity (rearings): 6.3 ± 1.6
[4]; i.p., doses that activate Balb/c mice
  effect on locomotor activity of C57B1/6 mice in open-field test, in words: without any changes in locomotor activity
[5]; 1.0 mg/kg i.p.
  number of punished lickings (shocks received in 5-min session): 59.1 ± 16.7
[5]; 5.0 mg/kg i.p.
  number of punished lickings (shocks received in 5-min session): 35.3 ± 5.5
[5]; 10.0 mg/kg i.p.
  number of punished lickings (shocks received in 5-min session): 38.0 ± 9.4
[5]; 20.0 mg/kg i.p.
  number of punished lickings (shocks received in 5-min session): 73.9 ± 24.1
[6]; [8]
  duration of sleep after sodium thiopental: 78.4 ± 18.2 min
  latent time of sleep after sodium thiopental: 2.5 ± 0.2 s
[6]; [9]
  duration of sleep after sodium thiopental: 70.5 ± 13.7 min
  latent time of sleep after sodium thiopental: 2.8 ± 0.2 s
[6]; [10]
  duration of sleep after sodium thiopental: 56.8 ± 19.1 min
  latent time of sleep after sodium thiopental: 2.3 ± 0.2 s
[6]; [11]
  duration of sleep after sodium thiopental: 74.7 ± 18.7 min
  latent time of sleep after sodium thiopental: 2.8 ± 0.3 s
[7]; 0.1 mg/kg
  time of remaining on the rotarod: 120 + 0 sec
[7]; 1.0 mg/kg
  time of remaining on the rotarod: 120 + 0 sec
[7]; 5.0 mg/kg
  time of remaining on the rotarod: 120 + 0 sec
[7]; 10.0 mg/kg
  time of remaining on the rotarod: 120 + 0 sec
[7]; 20.0 mg/kg
  time of remaining on the rotarod: 120 + 0 sec

Reference: patent US6376666B1 (Nauchno-Issledovatelsky Institut Farmakologii Rossiiskoi …, priority 1994, dated 2002)
